Measurements published in patent US20240277798A1, “CYCLOSPORINE COMPOSITIONS AND METHODS OF USE” (Bacainn Biotherapeutics, Ltd., priority 2021, published 2024).
Values joined by “and” are separate entries in the source; they are usually repeats but may differ in a detail not shown here. Identical values can stand only once.

Assays:
[1] = Amount excreted in feces after oral dosing in rats; type: in vivo, Sprague-Dawley rats; details: rat, individual animals
[2] = Feces stability (rat feces homogenate); type: in vitro ADME, Sprague-Dawley rat; details: 10 μM, 37° C., 24 hours, predicted
Description: Feces stability. Immediately prior to the study, male Sprague-Dawley rat feces were collected overnight over a mix of dry and wet ice. Feces were then homogenized in phosphate buffer at pH 6.5 and filtered to remove particles. BT090 ([…]) was incubated in duplicate at 37° C. for a total of 24 hours in the freshly prepared rat feces homogenate. At selected time points (0.5, 2, 6 and 24 hours), a 25 μL aliquot was taken from the incubation mixtures and quenched with 225 μL of acetonitrile containing the internal standards (IS). Samples were then centrifuged to pellet the precipitated proteins and the supernatants were diluted 5-fold. The 0 hour samples were prepared in pre-quenched feces homogenate towards the end of the incubation period. All quenched samples were then submitted to bioanalysis for LC-MS/MS quantification.
(§1) Bioanalysis. BT090 samples were analyzed by LC-MS/MS using a Thermo Accela UPLC and a Thermo Q-Exactive mass spectrometer. The [M+H]+ adducts of the compounds and internal standards were monitored using positive mode electrospray ionization in exact mass mode. […]
Feces stability. […] All quenched samples are then submitted to bioanalysis for LC-MS/MS quantification.
(§2) Bioanalysis. […] The [M+H]+ adducts of the compounds and internal standards are monitored using positive mode electrospray ionization in exact mass mode. […]

SGF FeSSIF stability = type: in vitro ADME; details: 10 μM, 37° C., 6 hours, predicted
Description: SGF FeSSIF Stability Procedure. BT090 (10 μM) was incubated in duplicate at 37° C. for a total of 6 hours in simulated gastric fluid (SGF) (Ricca, Arlington, TX) and Fed State Simulated Intestinal Fluid (FeSSIF) (Biorelevant, London, UK). The reactions were initiated by spiking the test articles (1 mM water stock solutions) in their respective buffers. At selected time points (0, 0.5, 1, 2, 4, and 6 hours), a 50 μL aliquot was taken from the incubation mixtures and frozen at −80° C. At the end of the incubation period, 200 μL of 50:50 acetonitrile:water containing the internal standards (IS) were added to every tube and vortexed thoroughly. The 0 hour samples were prepared in pre-quenched SGF or FeSSIF. All quenched samples were then submitted to bioanalysis for LC-MS/MS quantification.
as §1
SGF FeSSIF Stability Procedure. […] All quenched samples are then submitted to bioanalysis for LC-MS/MS quantification.
as §2

[3] = Rat PK, plasma concentrations after oral dosing; type: in vivo, Sprague-Dawley rats
[4] = BT070 10 mg/kg orally, 0-24 h, 10 mg/kg
[5] = BT070 10 mg/kg orally, rat, individual animals, 10 mg/kg
[6] = BT070 10 mg/kg orally, rat, mean

Amount in feces ([1]; BT070 10 mg/kg orally, 0-4 h): 561.4 ng | % of dose excreted unchanged in feces [1, 4]: 44.6% and 9.0% and 72.2% | Amount in feces ([1]; BT070 10 mg/kg orally, 4-8 h, 10 mg/kg): 181805.0 ng and 875239.4 ng | stability in fresh rat fecal homogenate [2]: stable | stability in simulated gastric fluid (SGF) (SGF FeSSIF stability): stable | stability in simulated intestinal fluid (FeSSIF) (SGF FeSSIF stability): stable | Mean plasma concentration ([3]; BT070 10 mg/kg orally, rat, 0.5 h, mean): 3588.6 ng/mL | Mean plasma concentration ([3]; BT070 10 mg/kg orally, rat, 1 h, mean): 2301.5 ng/mL | Mean plasma concentration ([3]; BT070 10 mg/kg orally, rat, 2 h, mean): 1522.8 ng/mL | Mean plasma concentration ([3]; BT070 10 mg/kg orally, rat, 4 h, mean): 829.6 ng/mL | Mean plasma concentration ([3]; BT070 10 mg/kg orally, rat, 6 h, mean): 488.3 ng/mL | Mean plasma concentration ([3]; BT070 10 mg/kg orally, rat, 8 h, mean): 293.9 ng/mL | Mean plasma concentration ([3]; BT070 10 mg/kg orally, rat, 24 h, mean): 101.2 ng/mL | % Extrapolation [3, 5]: 0.3% and 38.42% and 2.46% | tmax [3, 5]: 0.50 h (2×) and 2.00 h | % Extrapolation, Mean [3, 6]: 13.7% | AUCinf, Mean [3, 6]: 14735.7 ng·h/mL | AUClast, Mean [3, 6]: 12202.9 ng·h/mL | CL_F, Mean [3, 6]: 13.5 mL/min/kg | Cmax, Mean [3, 6]: 3711.2 ng/mL | M.R.T. po, Mean [3, 6]: 10.8 h | tmax, Mean [3, 6]: 1.0 h | Mean plasma concentration ([3]; BT070 as breakdown product after BT051 10 mg/kg orally, rat, 0.5 h, mean): 3.3 ng/mL | Cmax ([3]; BT070 as breakdown product after BT051 10 mg/kg orally, rat, individual animals): 3.3 ng/mL | Cmax, Mean ([3]; BT070 as breakdown product after BT051 10 mg/kg orally, rat, mean): 3.3 ng/mL | oral bioavailability of the breakdown product ([3]; BT070 following oral administration of BT051 in rats at 10 mg/kg, result in words): not orally bioavailable
Structure (SMILES): CC[C@@H]1NC(=O)[C@H]([C@H](O)[C@H](C)CCCCCC(=O)O)N(C)C(=O)[C@H](C(C)C)N(C)C(=O)[C@H](CC(C)C)N(C)C(=O)[C@H](CC(C)C)N(C)C(=O)[C@@H](C)NC(=O)[C@H](C)NC(=O)[C@H](CC(C)C)N(C)C(=O)[C@H](C(C)C)NC(=O)[C@H](CC(C)C)N(C)C(=O)CN(C)C1=O [BT070]
Total amount excreted unchanged in feces [1, 4]: 1212482.2 ng and 252675.5 ng and 1891835.1 ng | Amount in feces ([1]; BT070 10 mg/kg orally, 8-24 h, 10 mg/kg): 1030677.2 ng and 252114.1 ng and 1016595.6 ng | Total amount excreted in feces ([1]; BT070 as breakdown product after BT051 10 mg/kg orally, 0-48 h): 36.9 µg and 33.4 µg and 41.4 µg and 38.5 µg | Amount in feces ([1]; BT070 as breakdown product after BT051 10 mg/kg orally, 8-24 h): 31200 ng and 14300 ng and 10600 ng and 34800 ng | Amount in feces ([1]; BT070 as breakdown product after BT051 10 mg/kg orally, 24-48 h): 5700 ng and 19100 ng and 30800 ng and 3700 ng | plasma concentration ([3]; BT070 10 mg/kg orally, rat, 0.5 h, individual animals, 10 mg/kg): 7472.8 ng/mL and 746.7 ng/mL and 2546.3 ng/mL | plasma concentration ([3]; BT070 10 mg/kg orally, rat, 1 h, individual animals, 10 mg/kg): 4382.8 ng/mL and 725.2 ng/mL and 1796.5 ng/mL | plasma concentration ([3]; BT070 10 mg/kg orally, rat, 2 h, individual animals, 10 mg/kg): 2238.3 ng/mL and 1114.4 ng/mL and 1215.5 ng/mL | plasma concentration ([3]; BT070 10 mg/kg orally, rat, 4 h, individual animals, 10 mg/kg): 1178.8 ng/mL and 861.5 ng/mL and 448.5 ng/mL | plasma concentration ([3]; BT070 10 mg/kg orally, rat, 6 h, individual animals, 10 mg/kg): 641.5 ng/mL and 543.6 ng/mL and 280.0 ng/mL | plasma concentration ([3]; BT070 10 mg/kg orally, rat, 8 h, individual animals, 10 mg/kg): 312.1 ng/mL and 451.6 ng/mL and 118.1 ng/mL | plasma concentration ([3]; BT070 10 mg/kg orally, rat, 24 h, individual animals, 10 mg/kg): 12.0 ng/mL and 268.9 ng/mL and 22.8 ng/mL | AUCinf [3, 5]: 17616.8 ng/mL*h and 19158.4* ng/mL*h and 7432.0 ng/mL*h | AUClast [3, 5]: 17560.9 ng·h/mL and 11798.3 ng·h/mL and 7249.5 ng·h/mL | CL_F [3, 5]: 9.5 mL/min/kg and 8.7* mL/min/kg and 22.43 mL/min/kg | Cmax [3, 5]: 7472.8 ng/mL and 1114.4 ng/mL and 2546.3 ng/mL | plasma concentration ([3]; BT070 as breakdown product after BT051 10 mg/kg orally, rat, 0.5 h, individual animals): 3.3 ng/mL and NQ (Not quantifiable. No peak or below limit of quantification (LOQ = 2.5 ng/mL)) (4×) | plasma concentration ([3]; BT070 as breakdown product after BT051 10 mg/kg orally, rat, 1 h, individual animals): NQ (Not quantifiable. No peak or below limit of quantification (LOQ = 2.5 ng/mL)) | plasma concentration ([3]; BT070 as breakdown product after BT051 10 mg/kg orally, rat, 2 h, individual animals): NQ (Not quantifiable. No peak or below limit of quantification (LOQ = 2.5 ng/mL)) | plasma concentration ([3]; BT070 as breakdown product after BT051 10 mg/kg orally, rat, 4 h, individual animals): NQ (Not quantifiable. No peak or below limit of quantification (LOQ = 2.5 ng/mL)) | plasma concentration ([3]; BT070 as breakdown product after BT051 10 mg/kg orally, rat, 6 h, individual animals): NQ (Not quantifiable. No peak or below limit of quantification (LOQ = 2.5 ng/mL)) | plasma concentration ([3]; BT070 as breakdown product after BT051 10 mg/kg orally, rat, 8 h, individual animals): NQ (Not quantifiable. No peak or below limit of quantification (LOQ = 2.5 ng/mL)) | plasma concentration ([3]; BT070 as breakdown product after BT051 10 mg/kg orally, rat, 24 h, individual animals): NQ (Not quantifiable. No peak or below limit of quantification (LOQ = 2.5 ng/mL)) | detectability in plasma ([3]; rats, 10 mg/kg orally, result in words): present in the plasma in all subject rats from 15 minutes to 24 hours
